Data: the NIST ThermoML archive (doi:10.1021/je0302304)
± gives the expanded uncertainty stated by the source.

What was measured:
[1] = 101.32 kPa, Liquid
[2] = refractive index (Na D-line) (dimensionless); conditions: 101.33 kPa, Liquid, Standard Abbe refractometry
[3] = xn = mol fraction of the nth substance listed; conditions: 101.32 kPa, Liquid, x2 = 0
[4] = refractive index (Na D-line) (dimensionless); xn = mol fraction of the nth substance listed; conditions: 101.32 kPa, Liquid, Standard Abbe refractometry, x2 = 0

| SMILES | mass density ([1]; 288.15 K) [kg/m3] | mass density ([1]; 298.15 K) [kg/m3] | mass density ([1]; 308.15 K) [kg/m3] | mass density ([1]; 318.15 K) [kg/m3] | refractive index ([2]; 288.15 K) | refractive index ([2]; 298.15 K) | refractive index ([2]; 308.15 K) | refractive index ([2]; 318.15 K) | mass density ([3]; 288.15 K) [kg/m3] | mass density ([3]; 298.15 K) [kg/m3] | mass density ([3]; 308.15 K) [kg/m3] | mass density ([3]; 318.15 K) [kg/m3] | refractive index ([4]; 288.15 K) | refractive index ([4]; 298.15 K) | refractive index ([4]; 308.15 K) | refractive index ([4]; 318.15 K) |
| --- | --- | --- | --- | --- | --- | --- | --- | --- | --- | --- | --- | --- | --- | --- | --- | --- |
| COCCOC [1,2-dimethoxyethane] | 872.4 ± 0.3 | 861.5 ± 0.3 | 850.4 ± 0.4 | 839.2 ± 0.4 | 1.3824 ± 0.0005 | 1.3772 ± 0.0005 | 1.3722 ± 0.0005 | 1.3672 ± 0.0005 |  |  |  |  |  |  |  |  |
| COCCOCCOCCOCCOC [2,5,8,11,14-pentaoxapentadecane] | 1016 ± 0.3 | 1006.6 ± 0.3 | 997.4 ± 0.3 | 988.1 ± 0.3 | 1.4344 ± 0.0003 | 1.4303 ± 0.0003 | 1.4262 ± 0.0003 | 1.4221 ± 0.0003 |  |  |  |  |  |  |  |  |
| COCCOCCOCCOC [2,5,8,11-tetraoxadodecane] | 989.7 ± 0.4 | 980.1 ± 0.4 | 970.7 ± 0.4 | 961.1 ± 0.4 | 1.425 ± 0.0005 | 1.4209 ± 0.0005 | 1.4167 ± 0.0005 | 1.4125 ± 0.0005 |  |  |  |  |  |  |  |  |
| COCCOCCOC [2,5,8-trioxanonane] | 948.6 ± 0.3 | 938.7 ± 0.3 | 928.7 ± 0.3 | 918.6 ± 0.3 | 1.4101 ± 0.0005 | 1.4058 ± 0.0005 | 1.4012 ± 0.0005 | 1.3968 ± 0.0005 |  |  |  |  |  |  |  |  |

The remaining lines, values ahead:

| mass density ([1]; 288.15 K) [kg/m3] | mass density ([1]; 298.15 K) [kg/m3] | mass density ([1]; 308.15 K) [kg/m3] | mass density ([1]; 318.15 K) [kg/m3] | refractive index ([2]; 288.15 K) | refractive index ([2]; 298.15 K) | refractive index ([2]; 308.15 K) | refractive index ([2]; 318.15 K) | mass density ([3]; 288.15 K) [kg/m3] | mass density ([3]; 298.15 K) [kg/m3] | mass density ([3]; 308.15 K) [kg/m3] | mass density ([3]; 318.15 K) [kg/m3] | refractive index ([4]; 288.15 K) | refractive index ([4]; 298.15 K) | refractive index ([4]; 308.15 K) | refractive index ([4]; 318.15 K) | SMILES |
| --- | --- | --- | --- | --- | --- | --- | --- | --- | --- | --- | --- | --- | --- | --- | --- | --- |
| 793.6 ± 0.5 | 785.2 ± 0.5 | 776.6 ± 0.5 | 767.9 ± 0.5 | 1.3632 ± 0.0005 | 1.3591 ± 0.0005 | 1.3551 ± 0.0005 | 1.3509 ± 0.0005 |  |  |  |  |  |  |  |  | CCO [ethanol] |
|  |  |  |  |  |  |  |  | 793.6 ± 0.5 | 785.2 ± 0.5 | 776.6 ± 0.5 | 767.9 ± 0.5 | 1.3632 ± 0.0005 | 1.3591 ± 0.0005 | 1.3551 ± 0.0005 | 1.3509 ± 0.0005 | CCO [ethanol] + COCCOC |
|  |  |  |  |  |  |  |  | 793.6 ± 0.5 | 785.2 ± 0.5 | 776.6 ± 0.5 | 767.9 ± 0.5 | 1.3632 ± 0.0005 | 1.3591 ± 0.0005 | 1.3551 ± 0.0005 | 1.3509 ± 0.0005 | CCO [ethanol] + COCCOCCOC |
|  |  |  |  |  |  |  |  | 793.6 ± 0.5 | 785.2 ± 0.5 | 776.6 ± 0.5 | 767.9 ± 0.5 | 1.3632 ± 0.0005 | 1.3591 ± 0.0005 | 1.3551 ± 0.0005 | 1.3509 ± 0.0005 | CCO [ethanol] + COCCOCCOCCOC |
|  |  |  |  |  |  |  |  | 793.6 ± 0.5 | 785.2 ± 0.5 | 776.6 ± 0.5 | 767.9 ± 0.5 | 1.3632 ± 0.0003 | 1.3591 ± 0.0003 | 1.3551 ± 0.0003 | 1.3509 ± 0.0003 | CCO [ethanol] + COCCOCCOCCOCCOC |
